Results as given in patent publication US20220175798A1, “COMPOSITIONS COMPRISING OXYGENATED CHOLESTEROL SULFATE AND AT LEAST ONE OF POLYALKYLENE GLYCOL, CARBOXYMETHYL CELLULOSE AND POLYOXYLGLYCERIDE” (Durect Corporation, priority 2016, published 2022).

Columns and labels:
[1] = system: APAP-induced liver failure; test: Acetaminophen (APAP)-induced model of acute liver failure; format: in vivo, C57BL/6J mice; details: 25 mg/kg oral gavage 1 hr (and 24 hr) post APAP 300 mg/kg; vs vehicle
Procedure: The subjects for the study were 52 C57BL/6J male mice (12 weeks of age; 27.4-40 g). […] All animals were in healthy condition and admitted to the study.
(§1) The Vehicle was a solution of 0.5% (w/v) CMC and 0.05% (v/v) Tween-80 in water. Powdered 25HC3 S was constituted into the vehicle solution to result in a drug concentration of 3 mg/mL. The suspensions were homogenized at 20,000 rotations per minute (rpm) for approximately 5 minutes after being combined, with 10 second breaks every 30-40 seconds and swirled before dosing to maintain homogeneity. The formulated test article was prepared weekly and kept at room temperature.
Two groups of mice (N=14/group) were challenged with 300 mg/kg APAP by oral gavage. The two groups were treated with one dose of vehicle or 25HC3 S (25 mg/kg) by oral gavage at a dose volume of 8.33 mL/kg one hour post-APAP challenge. Half of the mice in each group (N=6-7/group) were given a second dose of vehicle or 25HC3 S (25 mg/kg) at 24 hour post-APAP delivery in addition to the first dose at 1 hr. Cohort A mice (single dose) were sacrificed 24 hrs post APAP-challenge and Cohort B mice (two doses) were sacrificed at 48 hours post APAP-challenge. A parallel set of untreated age-matched mice (no APAP and vehicle administered by oral gavage) were also sacrificed at both time points to compare baseline measurements (N=6/time point; 12 in total). […]

[2] = Syringeability study of 25HC3S suspensions; format: physicochemical
Procedure: Two lots of 25HC3S sodium salt (Lot #A and Lot #B) were used. Lot #B was delumped through a 20 mesh screen. The drug substance was either used directly or further jet-milled, prior to the preparation of suspensions for the studies. A third lot of 25HC3 S sodium salt (Lot #C) was jet-milled first and then used directly or further passed through a 20 mesh screen prior to the studies. More than 10 vehicles were screened. Four mixing methods were evaluated: manual shaking (Mixing Method 1), manual shaking followed by sonication (Mixing Method 2) and homogenization with a sonic probe (Mixing Method 3) as well as mechanical shaking horizontally in a flat bed shaker (Mixing Method 4). Studies #1 to 13 combined vehicle screening, mixing methods and syringeability evaluation. The effect of drug concentrations on the syringeability was evaluated (Studies #10 and 11). Syringe: 1 mL BD syringe (luer lok tip), reference no: 309628 Needles for syringeability study: listed below Weigh approximately 10 to 100 mg each of 25HC3S into 2 mL vials. Add to each vial, 1 mL of vehicle. A total of 3 mixing methods were used to prepare the suspensions. Mixing Method 1: Each vial was manually shaken for 15 to 45 times. […] The effect of 25HC3S with or without jet milling and the effects of mixing methods as well as drug concentrations on the syringeability were evaluated. […]

[3] = Osmolality by vapor pressure osmometer; format: physicochemical
Procedure: Vapor Pressure Osmometer: Vapor® Vapor Pressure Osmometer, Model
Vehicle PEG 3350 (3% PEG 3350 plus 0.3% Tween 80 in 10 mM Phosphate at pH 7.4) with 0.71%, 0.77% and 0.80% NaCl were prepared and the osmolality was measured with a vapor pressure osmometer.
Weigh 87 mg of 25HC3S (Lot #C, Jet milled and then pass 20 mesh screen) into a 5-mL vial. Add to the vial 3 mL Vehicle PEG 3350 (without L-methionine and with 0.75% NaCl). […] Weigh another approximately and accurately 90 mg each of 25HC3S (Lot #D and Lot #B, micronized, one pass) into 3 separate 10 mL vials with 3 mL of Vehicle PEG 3350. The vials were placed in a flat bed shaker at 200 rpm for 45 minutes (Mixing Method 4). […] A second set of samples was prepared likewise from the same 3 vials except using 1 mL BD syringe attached to a 27G½″ needle. The homogeneity was determined (Study #19).

[4] = system: renal ischemia/reperfusion injury; test: Renal ischemia/reperfusion injury in rats; format: in vivo, Lewis rats; details: 50 mg/kg daily for 4 days oral gavage; Day 3; vs vehicle; not statistically significant
Procedure: The subjects for the study were 18 adult male Lewis rats (9-11 weeks of age; 225-250 g). […] All animals were in healthy condition and admitted to the study.
as §1, with “of 20” for “of 3”
All rats were anesthetized with intraperitoneal injection of pentobarbital (40 mg/kg). Ischemia of the left kidney was achieved by transient occlusion of the left renal artery and vein, and ureter for 50 min with a vascular micro-clip. The skin was temporarily closed during the ischemia period and the rats were put on a heating pad maintained at a temperature of 37° C. At reperfusion, the right kidney was removed before permanently closing the abdomen with 4-0 silk suture Animals were treated with vehicle (N=6) or 25HC3S (N=12) daily for 4 days, starting on the day before the surgery, (pre-treatment, Day −1) and for 2 days after the surgery. […] Serum creatinine (sCr) levels and BUN levels were examined on Day −2 (baseline), Day 3, and/or Day 7 after the surgery.

For C[C@H](CCCC(C)(C)O)[C@H]1CC[C@H]2[C@@H]3CC=C4C[C@@H](OS(=O)(=O)[O-])CC[C@]4(C)[C@H]3CC[C@]12C.[Na+] [Formulation 25HC3S, 5-cholesten-3, 25-diol, 3-sulfate], the “serum chemistry parameters (ALT, AST, ALK, LDH, BUN, glucose)” value [1] was “no effect”, the syringeability ([2]; 25 mg/mL in Vehicle PEG 3350 (without L-Methionine), flat bed shaker 200 rpm up to 45 minutes (Study #13)) was “good syringeability” and the syringeability ([2]; final suspension formulation: 25 mg/mL in 3% PEG 3350, 0.3% Tween 80, 0.75% NaCl, 10 mM phosphate buffer pH 7.4) was “good syringeability”. The osmolality ([3]; final improved formulation 25 mg/mL (Study #18)) was 321 mmol/kg, the osmolality ([3]; suspension 25 mg/mL in Vehicle PEG 3350 without L-Methionine, 0.75% NaCl, average of 6 measurements) was 321 mmol/kg and the “reduction of BUN levels” value [4] was 5%. For the same molecule, the “reduction of sCr levels” value [4] was about 20%.
